Reference: patent publication US10059701B2 (Merck Patent GmbH, priority 2015, dated 2018)

Key:
IRAK1 = target: T1, IRAK1 (Homo sapiens, UniProt P51617); assay: IRAK1 enzymatic assay (ADP-Glo luminescence); format: biochemical; settings: purified human recombinant His-TEV-IRAK1 (194-712)
T1 construct: His-TEV-IRAK1 (194-712); His (N); TEV cleavage site (N)
Experimental: IRAK1 is a human purified recombinant enzyme (His-TEV-IRAK1 (194-712))
In this assay, IRAK1 hydrolyses ATP and autophosphorylates. Measurement of IRAK-1 inhibition is performed in 384-well format based on luminescence assay (ADP-Glo™ Kinase Assay from Promega). Purified human recombinant IRAK1 (0.3 μg/ml) and serial diluted compounds in DMSO (range of concentration from 10 μM to 0.5 nM) or controls (1% DMSO) are incubated for 15 minutes at RT in assay buffer containing 50 mM Hepes pH 7.0, Fatty acid-free BSA 0.1%, Dithiothreitol (DTT) 2 mM, MgCl2 10 mM, EGTA 0.5 mM, Triton X-100 0.01%. The kinase reaction is then initiated by the addition of ATP […] After 2 hours of incubation at RT, the reaction is stopped and the unconsumed ATP depleted by the addition of ADP-Glo™ Reagent according to supplier instructions. After 40 minutes of incubation at RT, the Kinase Detection Reagent is then added to the assay plate according to supplier instructions. After 20 minutes of incubation at RT, the luminescence signal is measured with a luminometer (PerkinElmer Envision or equivalent reader).

IRAK4 = target: T2, IRAK4 (Homo sapiens, UniProt Q9NWZ3); assay: IRAK4 enzymatic assay (ADP-Glo luminescence); format: biochemical; settings: purified human recombinant His-TEV-IRAK4 (1-460), ATP 2 μM
T2 construct: His-TEV-IRAK4 (1-460); His (N); TEV cleavage site (N)
T2 sequence (Q9NWZ3 1-460): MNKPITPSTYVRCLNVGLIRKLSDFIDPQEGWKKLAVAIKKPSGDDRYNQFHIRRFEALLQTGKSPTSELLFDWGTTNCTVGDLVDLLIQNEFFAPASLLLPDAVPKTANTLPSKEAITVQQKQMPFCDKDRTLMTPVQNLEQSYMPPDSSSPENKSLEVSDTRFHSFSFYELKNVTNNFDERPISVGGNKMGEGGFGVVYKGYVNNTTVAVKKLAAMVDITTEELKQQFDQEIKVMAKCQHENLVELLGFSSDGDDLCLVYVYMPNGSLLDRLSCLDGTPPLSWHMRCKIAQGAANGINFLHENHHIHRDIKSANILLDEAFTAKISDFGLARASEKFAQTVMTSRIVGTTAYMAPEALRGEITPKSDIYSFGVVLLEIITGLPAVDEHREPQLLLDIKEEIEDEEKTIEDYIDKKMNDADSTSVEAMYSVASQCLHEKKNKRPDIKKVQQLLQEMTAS
Experimental: IRAK4 is a human purified recombinant enzyme (His-TEV-IRAK4 (1-460)).
In this assay, IRAK4 hydrolyses ATP, autophosphorylates and phosphorylates a Serine/Threonine generic peptidic substrate (STK: 61ST1BLC from CisBio International). Measurement of IRAK-4 inhibition is performed in 384-well format based on a luminescence assay (ADP-Glo™ Kinase Assay from Promega). Purified human recombinant IRAK4 (0.3 μg/ml) and serial diluted compounds in DMSO (range of concentration from 10 μM to 0.5 nM) or controls (1% DMSO) are incubated for 15 minutes at RT in assay buffer containing 50 mM Hepes pH 7.0, Fatty acid-free BSA 0.1%, Dithiothreitol (DTT) 2 mM, MgCl2 10 mM, EGTA 0.5 mM, Triton X-100 0.01%, MnCl2 5 mM. The kinase reaction is then initiated by the addition of ATP (2 μM) and the peptidic substrate STK1-biotin peptide (300 nM). After 2 hours of incubation at RT, the reaction is stopped and the unconsumed ATP depleted by the addition of ADP-Glo™ Reagent according to supplier instructions. After 40 minutes of incubation at RT, the Kinase Detection Reagent is then added to the assay plate according to supplier instructions. After 20 minutes of incubation at RT, the luminescence signal is measured with a plate-reading luminometer (PerkinElmer Envision or equivalent reader).

T1 sequence (P51617 194-712): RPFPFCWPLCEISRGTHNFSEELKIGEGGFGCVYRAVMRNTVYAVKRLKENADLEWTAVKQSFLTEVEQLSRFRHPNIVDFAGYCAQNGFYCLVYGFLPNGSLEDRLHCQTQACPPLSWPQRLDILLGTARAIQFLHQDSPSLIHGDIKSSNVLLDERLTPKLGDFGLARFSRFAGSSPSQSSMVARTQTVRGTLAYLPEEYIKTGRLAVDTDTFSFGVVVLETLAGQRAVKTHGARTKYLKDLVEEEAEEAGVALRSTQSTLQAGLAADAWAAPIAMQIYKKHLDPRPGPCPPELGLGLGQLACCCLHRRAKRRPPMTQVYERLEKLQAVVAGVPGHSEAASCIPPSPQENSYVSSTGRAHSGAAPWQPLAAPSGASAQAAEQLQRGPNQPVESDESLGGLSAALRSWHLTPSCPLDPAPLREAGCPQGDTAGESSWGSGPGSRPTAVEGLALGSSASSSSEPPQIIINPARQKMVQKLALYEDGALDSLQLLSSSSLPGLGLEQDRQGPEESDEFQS

## O=C(/N=c1\[nH]c2cc(N3CCOCC3=O)ccc2n1[C@H]1CCCC[C@H]1CO)c1cccc(C(F)(F)F)c1 (racemic) [Compound 116, rac-(E)-N-(1-((1S,2R)-2-(hydroxymethyl)cyclohexyl)-5-(3-oxomorpholino)-1H-benzo[d]imidazol-2(3H)-ylidene)-3-(trifluoromethyl)benzamide]
IRAK1
  IC50: > 1000 nM
IRAK4
  IC50: 100 to 1000 nM

## O=C(/N=c1\[nH]c2cc(N3CCOCC3=O)ccc2n1[C@H]1CCCC[C@H]1CO)c1cccc(C(F)F)c1 (racemic) [Compound 117, rac-(E)-3-(difluoromethyl)-N-(1-((1S,2R)-2-(hydroxymethyl)cyclohexyl)-5-(3-oxomorpholino)-1H-benzo[d]imidazol-2(3H)-ylidene)benzamide]
IRAK1
  IC50: 100 to 1000 nM
IRAK4
  IC50: 100 to 1000 nM

## O=C(/N=c1\[nH]c2cc(N3CCOCC3=O)ccc2n1[C@H]1CCCC[C@@H]1CO)c1cccc(C(F)(F)F)c1 (racemic) [Compound 118, rac-(E)-N-(1-((1S,2S)-2-(hydroxymethyl)cyclohexyl)-5-(3-oxomorpholino)-1H-benzo[d]imidazol-2(3H)-ylidene)-3-(trifluoromethyl)benzamide]
IRAK1
  IC50: 100 to 1000 nM
IRAK4
  IC50: ≤ 100 nM

## O=C(/N=c1\[nH]c2cc(N3CCOCC3=O)ccc2n1[C@H]1CCCC[C@@H]1CO)c1cccc(C(F)F)c1 (racemic) [Compound 119, rac-(E)-3-(difluoromethyl)-N-(1-((1S,2S)-2-(hydroxymethyl)cyclohexyl)-5-(3-oxomorpholino)-1H-benzo[d]imidazol-2(3H)-ylidene)benzamide]
IRAK1
  IC50: 100 to 1000 nM
IRAK4
  IC50: ≤ 100 nM

## CCC(CCO)n1/c(=N/C(=O)c2cccc(C(F)(F)F)c2)[nH]c2cc(N3CCOCC3=O)ccc21 (racemic) [Compound 124, rac-(E)-N-(1-(1-hydroxypentan-3-yl)-5-(3-oxomorpholino)-1H-benzo[d]imidazol-2(3H)-ylidene)-3-(trifluoromethyl)benzamide]
IRAK1
  IC50: > 1000 nM
IRAK4
  IC50: 100 to 1000 nM

## CCC(CCO)n1/c(=N/C(=O)c2cccc(C(F)F)c2)[nH]c2cc(N3CCOCC3=O)ccc21 (racemic) [Compound 125, rac-(E)-3-(difluoromethyl)-N-(1-(1-hydroxypentan-3-yl)-5-(3-oxomorpholino)-1H-benzo[d]imidazol-2(3H)-ylidene)benzamide]
IRAK1
  IC50: > 1000 nM
IRAK4
  IC50: ≤ 100 nM

## O=C(/N=c1\[nH]c2cc(N3CCCOC3=O)ccc2n1[C@@H]1C[C@H]1CO)c1cccc(C(F)(F)F)c1 (racemic) [Compound 144, rac-(E)-N-(1-((1R,2R)-2-(hydroxymethyl)cyclopropyl)-5-(2-oxo-1,3-oxazinan-3-yl)-1H-benzo[d]imidazol-2(3H)-ylidene)-3-(trifluoromethyl)benzamide]
IRAK1
  IC50: > 1000 nM
IRAK4
  IC50: ≤ 100 nM

## O=C(/N=c1\[nH]c2cc(N3CCCNC3=O)ccc2n1CCCO)c1cccc(C(F)(F)F)c1 [Compound 1, (E)-N-(1-(3-hydroxypropyl)-5-(2-oxotetrahydropyrimidin-1(2H)-yl)-1H-benzo[d]imidazol-2(3H)-ylidene)-3-(trifluoromethyl)benzamide]
IRAK1
  IC50: 100 to 1000 nM
IRAK4
  IC50: ≤ 100 nM

## O=C(/N=c1\[nH]c2cc(N3CCOCC3=O)ccc2n1CCCO)c1cccc(-n2cnnc2)c1 [Compound 2, (E)-N-(1-(3-hydroxypropyl)-5-(3-oxomorpholino)-1H-benzo[d]imidazol-2(3H)-ylidene)-3-(4H-1,2,4-triazol-4-yl)benzamide]
IRAK1
  IC50: 100 to 1000 nM
IRAK4
  IC50: 100 to 1000 nM

## N#Cc1cccc(C(=O)/N=c2\[nH]c3cc(N4CCOCC4=O)ccc3n2CCCO)c1 [Compound 3, (E)-3-cyano-N-(1-(3-hydroxypropyl)-5-(3-oxomorpholino)-1H-benzo[d]imidazol-2(3H)-ylidene)benzamide]
IRAK1
  IC50: 100 to 1000 nM
IRAK4
  IC50: ≤ 100 nM

## O=C(/N=c1\[nH]c2cc(N3CCOCC3=O)ccc2n1CCCO)c1cccc(C(F)(F)F)c1F [Compound 4, (E)-2-fluoro-N-(1-(3-hydroxypropyl)-5-(3-oxomorpholino)-1H-benzo[d]imidazol-2(3H)-ylidene)-3-(trifluoromethyl)benzamide]
IRAK1
  IC50: 100 to 1000 nM
IRAK4
  IC50: ≤ 100 nM
